Among the test systems are HOP-62 NSCLC; K-562 leukemia; MALME-3M melanoma; NCI-H226 lung; NCI-H23 lung; NCI-H460 lung; OVCAR-5 ovarian; SNB-75 CNS; U251 CNS; UACC-62 melanoma.
Holding throughout (experiment): DTP human tumour cell line panel, 48 h

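Values below derive from 48-hour exposures of cells grown in 96-well plates, with endpoints linearly interpolated between the two concentrations bracketing the appropriate inhibition level. Abbreviation: GI50, concentration required for 50% inhibition of growth. The concentration for full growth arrest is given as TGI.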

On to `CNC(=O)OCc1nc(SC(C)C)n(C)c1COC(=O)NC`, for which the TGI with HOP-62 NSCLC, in the test on K-562 leukemia, in the test with MALME-3M melanoma, in the test on NCI-H226 lung, in the test on NCI-H23 lung and in the test with NCI-H460 lung was greater than 100 µM in each case. The TGI with OVCAR-5 ovarian, in the test with SNB-75 CNS, with U251 CNS and with UACC-62 melanoma was greater than 100 µM in each case.

As for `O=C(CCCc1c[nH]c2ccccc12)NC1CC(=O)c2c(Br)sc(Br)c21` (stereo not given), the GI50 in the test with HOP-62 NSCLC was 18.3 µM; with K-562 leukemia, 2.01 µM; in the test with MALME-3M melanoma, 16.4 µM; in the test on NCI-H226 lung, 19.6 µM; in the test on NCI-H23 lung it was 12.2 µM; with NCI-H460 lung it was 19.2 µM. For the same molecule, the GI50 is 16 µM in the test with OVCAR-5 ovarian, 13.9 µM in the test on SNB-75 CNS, 7.29 µM in the test on U251 CNS and 14.2 µM in the test with UACC-62 melanoma. The TGI with HOP-62 NSCLC stood at 33 µM; with K-562 leukemia it was 5.56 µM; in the test with MALME-3M melanoma it was 48 µM; in the test on NCI-H226 lung, 35.5 µM; in the test on NCI-H23 lung, 26.1 µM; in the test on NCI-H460 lung it was 38.7 µM. The TGI with OVCAR-5 ovarian amounted to 31.7 µM; in the test on SNB-75 CNS it was 27.7 µM; in the test on U251 CNS, 19.9 µM; with UACC-62 melanoma it was 27.9 µM.

For the molecule `CCOC(=O)c1cccc(=O)c(C(=O)OCC)c1`, the total growth inhibition concentration (TGI) in the test on HOP-62 NSCLC is greater than 100 µM; with K-562 leukemia, greater than 100 µM; in the test on MALME-3M melanoma, greater than 100 µM; in the test with NCI-H226 lung, 45.4 µM; in the test on NCI-H23 lung it was greater than 100 µM; with NCI-H460 lung, greater than 100 µM. For the same molecule, the TGI in the test with OVCAR-5 ovarian, in the test with SNB-75 CNS, in the test on U251 CNS and in the test on UACC-62 melanoma was greater than 100 µM in each case.

On to `COc1ccc(-c2cc(-c3ccc(Nc4nc(Nc5ccc(Cl)cc5)nc(Nc5ccc(Cl)cc5)n4)cc3)nc(N)c2C#N)cc1`, for which the GI50 with HOP-62 NSCLC was 11.9 µM; in the test on K-562 leukemia, 1.61 µM; with MALME-3M melanoma it was 1.73 µM; in the test with NCI-H226 lung it was 0.676 µM; in the test with NCI-H23 lung it was 3.52 µM; in the test on NCI-H460 lung, 4.2 µM. Besides, the GI50 in the test on OVCAR-5 ovarian was 4.14 µM; in the test with SNB-75 CNS, 1.4 µM; with U251 CNS it was 2.29 µM; in the test with UACC-62 melanoma, 2.64 µM. Besides, the TGI in the test on HOP-62 NSCLC is greater than 42.3 µM; in the test with K-562 leukemia, 5.38 µM; in the test on MALME-3M melanoma it was 3.49 µM; in the test with NCI-H226 lung it was 1.89 µM; in the test with NCI-H23 lung, greater than 87.7 µM; in the test on NCI-H460 lung, greater than 54.2 µM. Besides, the TGI in the test on OVCAR-5 ovarian amounted to 24 µM; with SNB-75 CNS, 3.5 µM; in the test with U251 CNS, 6.58 µM; in the test with UACC-62 melanoma, 10.6 µM.

Take `S=c1[nH]nc(COc2ccc(Cl)cc2)o1`: the concentration for total growth inhibition (TGI) with HOP-62 NSCLC, with K-562 leukemia, with MALME-3M melanoma, with NCI-H226 lung, in the test with NCI-H23 lung and with NCI-H460 lung was greater than 100 µM each time. Further, the total growth inhibition concentration (TGI) in the test with OVCAR-5 ovarian, with SNB-75 CNS, with U251 CNS and in the test on UACC-62 melanoma was greater than 100 µM throughout.

For the molecule `CC(Cl)(/C=C/Cl)C(Cl)/C=C/C(Cl)(CCl)CBr` (stereo not given), the concentration for total growth inhibition (TGI) in the test with HOP-62 NSCLC was 42.8 µM; with K-562 leukemia it was 14.2 µM; in the test on MALME-3M melanoma, 13.7 µM; with NCI-H226 lung, 22.9 µM; in the test with NCI-H23 lung, 7.16 µM; with NCI-H460 lung it was 15.4 µM. Also, the total growth inhibition concentration (TGI) worked out at 29.5 µM in the test with OVCAR-5 ovarian, 14.5 µM in the test on SNB-75 CNS, 8.37 µM with U251 CNS and 5.2 µM with UACC-62 melanoma.

Regarding `COC(=O)c1cnc(=O)n(C2CC(O)C(CO)O2)c1` (stereo not given), the GI50 in the test on HOP-62 NSCLC, with K-562 leukemia, in the test with MALME-3M melanoma, in the test with NCI-H226 lung, in the test with NCI-H23 lung and in the test on NCI-H460 lung was greater than 100 µM each time. The GI50 in the test with OVCAR-5 ovarian, with SNB-75 CNS, in the test on U251 CNS and in the test with UACC-62 melanoma was greater than 100 µM in each case. Further, the concentration for total growth inhibition (TGI) with HOP-62 NSCLC, with K-562 leukemia, in the test with MALME-3M melanoma, in the test with NCI-H226 lung, in the test with NCI-H23 lung and in the test with NCI-H460 lung was greater than 100 µM in each case. Further, the concentration for total growth inhibition (TGI) in the test on OVCAR-5 ovarian, in the test on SNB-75 CNS, in the test on U251 CNS and in the test on UACC-62 melanoma was greater than 100 µM in each case.

Take `O=C(c1cccs1)c1c(C(F)(F)F)n([O-])c2ccc(C(F)(F)F)cc2[n+]1=O`: the 50% growth inhibitory concentration (GI50) in the test on HOP-62 NSCLC was 0.298 µM; with K-562 leukemia, 0.251 µM; in the test on MALME-3M melanoma it was 0.552 µM; with NCI-H226 lung it was 0.524 µM; with NCI-H23 lung, 0.353 µM; in the test on NCI-H460 lung it was 0.205 µM. Moreover, the GI50 was 0.205 µM with OVCAR-5 ovarian, 0.502 µM with SNB-75 CNS, 0.179 µM with U251 CNS and 0.34 µM in the test with UACC-62 melanoma. The concentration for total growth inhibition (TGI) was 0.767 µM in the test on HOP-62 NSCLC; 1.21 µM in the test with K-562 leukemia; 1.21 µM in the test on MALME-3M melanoma; 1.42 µM in the test with NCI-H226 lung; 1 µM with NCI-H23 lung; 0.407 µM in the test with NCI-H460 lung. The TGI is 0.494 µM in the test on OVCAR-5 ovarian, 1.21 µM in the test with SNB-75 CNS, 0.322 µM in the test on U251 CNS and 1.08 µM with UACC-62 melanoma.

As to `Cc1ccc(S(=O)(=O)NC(CCC(=O)Nc2ccc(Cl)cc2)C(=O)Nc2ccc(Cl)cc2)cc1` (stereo not given), the GI50 is 0.62 µM with HOP-62 NSCLC; 0.0519 µM with K-562 leukemia; 1.82 µM with MALME-3M melanoma; 0.841 µM with NCI-H226 lung; 1.49 µM in the test with NCI-H23 lung; 0.204 µM in the test with NCI-H460 lung. Moreover, the GI50 with OVCAR-5 ovarian was 4.31 µM; in the test on SNB-75 CNS, 0.743 µM; with U251 CNS, 0.574 µM; in the test with UACC-62 melanoma it was 0.0967 µM. Besides, the TGI in the test on HOP-62 NSCLC came out at 2.07 µM; with K-562 leukemia it was 6.3 µM; in the test on MALME-3M melanoma, 8.27 µM; in the test with NCI-H226 lung it was 5.67 µM; with NCI-H23 lung it was 9.21 µM; in the test on NCI-H460 lung it was 7.33 µM. The TGI is 11.4 µM in the test on OVCAR-5 ovarian, 2.23 µM in the test on SNB-75 CNS, 5.13 µM in the test on U251 CNS and 0.367 µM in the test on UACC-62 melanoma.

By TGI is commonly meant the concentration giving total growth inhibition. A lower TGI goes with more potent growth arrest. One may read the GI50 as the concentration at which growth is held to half of that of the control.
